Like-named read-outs stand apart in the source and are kept apart here. Values belong to the compound of their own block, whether it stands above or below them.
Assays:
[1] = parameters: method as in PMID 28800383; settings: Phase 1 study; cited from earlier work
[2] = system: production of active NE in U937 cells; assay: Inhibition of the production of active NE in a neutrophil progenitor cell line; format: cell-based; settings: Homo sapiens, U-937, 48 h incubation
From the text: The inhibitory activity of BI 1291583 on the production of active NE was investigated in duplicate experiments in the human myeloid cell line U937. U937 cells were used as they constitutively express and process NE. Additionally, a myeloid cell line was used rather than primary neutrophils as CatC activates NSPs in the bone marrow during myelopoiesis and no further activation occurs once the neutrophils have entered the bloodstream; as such, the effect of CatC inhibition cannot be investigated in primary neutrophils. BI 1291583 was added to cell suspensions at a final concentration of 0.064, 0.32, 1.6, 8, 40, 200 and 1000 nM. Cells were then incubated for 48 h. Cell viability was then measured in duplicate experiments using the CellTiter-Glo® Luminescent Cell Viability Assay according to manufacturer’s instructions. For measurement of NE activity, cells were separated by centrifugation, lysed and debris removed. NE activity was measured by conversion of a fluorescent substrate. Increase in fluorescence was measured over time with a SpectramaxM5 fluorescence reader at 360 nm excitation wavelength and 460 nm emission wavelength. The reaction rate when CatC is fully saturated by BI 1291583 was used as primary readout to calculate NE activity. Percentage inhibition of NE activity in lysates treated with BI 1291583 was calculated relative to the mean of the vehicle-only control. […]

[3] = Bone marrow and plasma exposure after repeated oral dosing (LC-MS/MS); format: in vivo; settings: Crl:NMRI, mouse, 11-day dosing; for Kp at 5 h: bone marrow/plasma, 5 h after final dose, read-out: bone marrow-to-plasma exposure ratio
Protocol: At 5 h after final BI 1291583 administration, animals were euthanised by Narcoren application (400–600 mg/kg intraperitoneally). For assessment of BI 1291583 exposure in plasma, five drops of retrobulbar blood were taken. The femur was prepared by extraction, shock frozen in liquid nitrogen and stored at − 20 °C until bone marrow preparation. For preparation of bone marrow, epiphysis severed off and bone marrow extracted from the diaphysis. Exposure was measured via liquid chromatography–tandem mass spectrometry. […]

[4] = system: NE activity in mouse BALF neutrophils; assay: In vivo LPS-challenge model: NE activity in BALF neutrophil lysate; settings: 11-day dosing
Protocol: In the first—a 2-day treatment holiday regimen—mice were treated with 0.005, 0.05, 0.5 or 5 mg/kg BI 1291583, or vehicle, twice daily by oral gavage on Days 1‒5, 8 and 9. On Day 10, a final dose of BI 1291583 or vehicle was given followed by challenge with nebulised E. coli lipopolysaccharide (LPS) to induce neutrophil influx into the lungs. In the second dosing regimen, mice were treated with 0.00005, 0.0001, 0.001, 0.01, 0.03, 0.1, 0.5 or 5 mg/kg BI 1291583, or vehicle, once daily by oral gavage for 11 consecutive days. On Day 12, a final dose of BI 1291583 or vehicle was given followed by LPS challenge.
Four and a half hours after LPS challenge, lung neutrophils were harvested by lavage via tracheal cannula, and neutrophil count measured. Bronchoalveolar lavage fluid (BALF) samples were then centrifuged and cell pellets lysed with volume of lysis buffer normalised to neutrophil count. NE, CatG and PR3 activity were determined by conversion of a fluorescent substrate measured over time with a SpectramaxM5 fluorescence reader at 360 nm excitation wavelength and 460 nm emission wavelength. Fluorescence values were normalised to neutrophil count, and mean NE, CatG and PR3 activity from BI 1291583-treated animals was calculated relative to the mean of LPS/vehicle-treated control animals. CatG and PR3 activity was measured in pooled samples from each dose group. For the 11-day dosing experiments, the dose of BI 1291583 that inhibited 50% of NE activity (ED50) was calculated using GraphPad Prism software (version 9.5.0 for Windows, GraphPad Software, www.graphpad.com) with a non-linear regression curve fit. […] A one-way analysis of variance with Dunnett’s multiple comparisons test analysis was performed to determine statistical significance.
The inhibitory activity of INS1007 on the production of active NE, and distribution of INS1007 to bone marrow and plasma was investigated under the same conditions as the 11-day dosing regimen (see Methods, Additional File 1).
(§1) The animals were treated with BI 1291583 (0.005, 0.05, 0.5 and 5 mg/kg) or vehicle twice daily on Days 1‒5, 8 and 9. BI 1291583 or vehicle was applied orally by gavage (10 ml/kg body weight). On Day 10, animals were treated with BI 1291583 or vehicle followed by an LPS inhalation challenge.
as §1, with “(0.00005, 0.0001, 0.001, 0.01, 0.03, 0.1, 0.5,” for “(0.005, 0.05, 0.5 and”, “once” for “twice”, “for 11 consecutive days.” for “on Days 1‒5, 8 and 9.”, “12,” for “10,”
To induce neutrophil influx into the lungs, animals were challenged with an LPS inhalation at Day 12 of this study. LPS from E.coli (serotype 055:B5) was used (SigmaAldrich #L2880). […]
The trachea was cannulated and a lavage was performed using 2x1 ml lavage buffer (HBSS [HyClone, # Sh30588,01] with 10 U/ml heparin). Cell count in the lavage fluid and cell differentiation were determined using a haemocytometer (Sysmex XT-200i), following the supplier’s instructions.
For enzymatic NE measurement, the lavage cells were separated from two 500 µl aliquots of lavage fluid by centrifugation (1500rpm, 4°C, 15min), the supernatants were removed and the pellets were stored at -80°C for further analyses. For enzymatic proteinase 3 (PR3) and Cat G measurement, the remaining lavage samples from all animals of each dose group were pooled and cell count and cell differentiation were determined as described above. […]

[5] = system: healthy volunteers; parameters: method as in PMID 29484635; settings: once daily up to 40 mg for up to 28 days; cited from earlier work
[6] = system: patients with bronchiectasis; settings: 10 mg or 25 mg once daily, 24 weeks; cited from earlier work

Structure (SMILES): CC[C@@H](/C=C/C(=O)N1CCc2ccccc21)NC(=O)C1(N)CCOCC1 [GSK2793660]
inhibition of downstream NSPs [1]: insufficient inhibition of downstream NSPs
skin events [1]: marked skin desquamation events

IC50 [2]: 64 nM
concentration at 5 h ([3]; bone marrow, 0.1 mg/kg, 5 h after final dose on Day 12, read-out: exposure in bone marrow, mean (SEM)): 143 nM
concentration at 5 h ([3]; bone marrow, 0.5 mg/kg, 5 h after final dose on Day 12, read-out: exposure in bone marrow, mean (SEM)): 321 nM
concentration at 5 h ([3]; bone marrow, 5 mg/kg, 5 h after final dose on Day 12, read-out: exposure in bone marrow, mean (SEM)): 1690 nM
Kp at 5 h ([3]; 0.1 mg/kg, 0.1 mg/kg): 24
Kp at 5 h ([3]; 0.5 mg/kg, 0.5 mg/kg): 8
Kp at 5 h ([3]; 5 mg/kg, 5 mg/kg): 2
concentration at 5 h ([3]; plasma, 0.1 mg/kg, 5 h after final dose on Day 12, read-out: exposure in plasma, mean (SEM)): 6 nM
concentration at 5 h ([3]; plasma, 0.5 mg/kg, 5 h after final dose on Day 12, read-out: exposure in plasma, mean (SEM)): 40 nM
concentration at 5 h ([3]; plasma, 5 mg/kg, 5 h after final dose on Day 12, read-out: exposure in plasma, mean (SEM)): 710 nM
Structure (SMILES): Cn1c(=O)oc2ccc(-c3ccc(C[C@@H](C#N)NC(=O)[C@@H]4CNCCCO4)cc3)cc21 [INS1007]
inhibition of production of active NE compared with vehicle/LPS control ([4]; 0.1 mg/kg once daily oral): no inhibition
inhibition at 30 mg/kg ([4]; Mus musculus, Neutrophil, 264 h, at 30 mg/kg (range 0.3-50 mg/kg), p<0.001, read-out: maximum inhibition of production of active NE compared with LPS control): 76%
inhibition at 0.5 mg/kg ([4]; Mus musculus, Neutrophil, po, 264 h, 0.5 mg/kg once daily oral, read-out: inhibition of production of active NE compared with vehicle/LPS control): 19%
inhibition at 5 mg/kg ([4]; Mus musculus, Neutrophil, po, 264 h, 5 mg/kg once daily oral, read-out: inhibition of production of active NE compared with vehicle/LPS control): 75%
ED50 ([4]; Neutrophil, 264 h, once daily oral, read-out: ED50 for NE inhibition): 1.4 mg/kg

Structure (SMILES): Cn1c(=O)oc2ccc(-c3ccc(C[C@@H](C#N)NC(=O)[C@@H]4CNCCCO4)cc3)cc21 [brensocatib]
NE activity [5]: Exposure-related reduction
safety profile [5]: generally well-tolerated
skin findings [5]: several dose-dependent, possibly CatC-related non-serious skin findings (exfoliation and hyperkeratosis)
annualised rates of exacerbations and number of severe exacerbations compared with placebo [6]: lower
incidence of hyperkeratosis compared with the placebo group [6]: higher
risk of exacerbation over the treatment period compared with placebo [6]: lower
time to first exacerbation compared with placebo [6]: significantly increased
